# Marks after values point to notes of the source that are not given here.
# How the values were obtained:
# [1] = test system: androgen-dependent and androgen-independent PC cell lines; settings: cited from earlier work
# LAPC-4 xenografts = test system: LAPC-4 xenografts
# Description: The xenograft experiment was approved by the Université Laval Animal Care Committee (Comité de Protection des Animaux de l’Université Laval, Québec, QC, Canada) and carried out in an animal facility approved by the Canadian Council on Animal Care (CCAC). Homozygous male Balb/c athymic nude mice (~42 days old, weighing approximately 28 g) were obtained from Charles River Inc. (Saint-Constant, QC, Canada) and housed (4 to 5) in vinyl micro-isolated ventilated cages equipped with air lids. Cages were kept in laminar airflow hoods and maintained in pathogen-limiting conditions. The animals were housed under a controlled environment at 22 ± 3 °C with 50 ± 20% relative humidity and light set at 12 h/day (light on at 07:15) during the acclimatization and study periods. Sterile water and rodent food (Rodent Diet #T.2018.15, Harlan Teklad, Madison, WI, USA) were provided ad libitum.
# After an acclimatization period of 5 days, the mice were inoculated into both flanks by subcutaneous (SC) injection of 4 × 10^6 LAPC-4 cells (Passage 14) in 0.1 mL of growth medium containing 50% Matrigel (BD Biosciences, Mississauga, ON, Canada) via a 2.5-cm long 22-gauge needle. Two weeks later, mice that developed tumors were randomized according to tumor volume, divided into […] groups (Gr-1 to Gr-8), and treated over a period of 28 days. A bilateral orchiectomy was performed under isoflurane-induced anesthesia for Gr-1 but not for Gr-2 to Gr-8. Both Gr-1 (CTX control (CTL), 9 mice, 16 tumors) and Gr-2 (intact CTL, 9 mice, 18 tumors) were treated with 0.1 mL of the vehicle alone (8% DMSO/92% propylene glycol (PG) administered by gavage (PO). Gr-3 (30 mg/kg/PO, 10 mice, 19 tumors) received 0.843 mg of RM-581. Gr-4 (10 mg/kg/PO, 10 mice, 20 tumors) received 0.281 mg of RM-581. Gr-5 (3 mg/kg/PO, 10 mice, 18 tumors) received 0.084 mg of RM-581. Gr-6 (60 mg/kg/SC, 9 mice, 18 tumors) received 1.686 mg of abiraterone. Gr-7 (60 mg/kg/PO, 9 mice, 17 tumors) received 1.686 mg of abiraterone acetate. Gr-8 (4 mg/kg/IP, 9 mice, 17 tumors) received 0.112 mg of docetaxel.
# RM-581 and abiraterone acetate were administered six days a week PO; abiraterone was administered six days a week SC; and docetaxel was administered twice a week by intraperitoneal (IP) injection. RM-581 was first dissolved in DMSO, and thereafter we added PG to obtain the appropriate concentration in the vehicle fluid (8% DMSO/92% PG). Abiraterone acetate and abiraterone were dissolved in 0.3% hydroxypropyl cellulose in saline (0.9% NaCl), while docetaxel was first dissolved in DMSO, and thereafter we added phosphate-buffered saline (PBS) to obtain the proper concentration in the carrier fluid (0.5% DMSO/99.5% PBS). All solutions were prepared one day prior to the initiation of treatment and stored at 4 °C under constant agitation.
# The mice were weighed at the start and end of the protocol. Tumor area (mm^2) was calculated twice a week using two perpendicular diameters (L and W), which were recorded using a caliper, and the formula L/2 × W/2 × π. The area measured on the first day of treatment was fixed at 100%. At the end of the studies and 3 h after the last treatment, the mice were terminally anesthetized, and their final body weights were measured. Tumors, liver, kidney, and total prostate were collected from mice during necropsy, while blood was collected by cardiac puncture. Tissues and plasma were immediately frozen at −80 °C until analysis.
# LAPC-4 cells [2] = test: LAPC-4 cell viability proliferation and combination index assays (MTS, 6 days); type: cell-based, human; settings: LAPC-4, six days
# Description: LAPC-4 cells (1 × 10^4 cells/well) were seeded in triplicate in 96-well plates in IMDM (Iscove’s modified Dulbecco’s medium) (90 μL) supplemented (v/v) with 5% fetal FBS, 1% L-glutamine, 1% insulin, and 1% penicillin/streptomycin. The cells were incubated at 37 °C in a 5% CO2 humidified atmosphere for 24 h. […] After 6 days of incubation, the cell proliferation was determined by adding 10 µL of MTS followed by incubation at 37 °C for 4 h. Plates were then analyzed at 490 nm using a Tecan M-200 microplate reader (Männedorf, Switzerland). Using GraphPad Prism 7 software, the IC50 values were calculated. The values represent the average of two independent experiments performed in triplicate. According to the Chou–Talalay method and using the following formula, the CI (combination) was calculated. CI=(D)1/(DX)1+(D)2/(DX)2
# Denominators (DX)l and (DX)2 are the doses of individual drugs required to achieve a given effect level, and numerators (D)1 and (D)2 are the concentrations of each drug present in combination to trigger the same effect level. When the drugs interact additively, CI = 1, but a CI < 1 indicates a synergistic interaction, and a CI > 1 indicates an antagonistic effect.
# LAPC-4 cells [3] = test: Total cholesterol in LAPC-4 cells (kit); type: cell-based, human; settings: 18, 36, or 72 h; RM-581 2 μM or atorvastatin 10 μM
# Description: A cholesterol quantification kit provided by Sigma-Aldrich (Catalog Number MAK043) was used following the manufacturer’s instructions to determine the concentration of total cholesterol, free cholesterol, and cholesteryl ester in samples. The cholesterol contents were measured in samples from two different protocols. […] Secondly, in tumor, liver, and plasma obtained at the end of the LAPC-4 xenograft experiment (control group and the group treated with RM-581 at 10 mg/kg/PO).
# LAPC-4 cells [4] = test: Gene expression study by qPCR; type: cell-based, human; settings: RM-581 5 µM or atorvastatin 10 µM, CTL fixed at 1.0
# Description: LAPC-4 cells (3 × 10^5) were treated with RM-581 (1, 2, and 5 µM) at different times (6, 18, 24, and 36 h) and the expression of various genes was determined as previously reported. Primer sequences used for the analysis of each gene are reported in Table S3 (Supplementary Materials).
# PC-3 xenograft = test system: PC-3 xenograft; set-up: method as in PMID 34681843; settings: PC-3 xenograft, 4 mg/kg IP; cited from earlier work
# PC-3 (AR−) cells = test system: PC-3 (AR−) cells; set-up: method as in earlier work; settings: ref 52 Furuya et al.; cited from earlier work
# LNCaP (AR+) cells = test system: LNCaP (AR+) cells; set-up: method as in earlier work; settings: ref 52 Furuya et al.; cited from earlier work
smiles,measurement,setting,value
"CC(=O)O[C@H]1CC[C@@]2(C)C(=CC[C@@H]3[C@@H]2CC[C@]2(C)C(c4cccnc4)=CC[C@@H]32)C1 [abiraterone acetate, reference compound]",IC50,[1],> 10 µM
same,effect on tumor compared to intact group,"LAPC-4 xenografts; 60 mg/kg PO, day 28",no longer significant
"C[C@]12CC[C@H](O)CC1=CC[C@@H]1[C@@H]2CC[C@]2(C)C(c3cccnc3)=CC[C@@H]12 [abiraterone, reference compound]",day of significantly different effect vs intact control,LAPC-4 xenografts; 60 mg/kg SC,18 days
same,tumor reduction compared to intact control group,"LAPC-4 xenografts; 60 mg/kg SC, 6 days a week, day 28",40%
same,IC50,"LAPC-4 cells [2]; Homo sapiens, LAPC4, 144 h, single drugs and 1:1 combinations, read-out: IC50 (Figure 2B)",11.5 µM
"CC(C)c1c(C(=O)Nc2ccccc2)c(-c2ccccc2)c(-c2ccc(F)cc2)n1CC[C@@H](O)C[C@@H](O)CC(=O)O [atorvastatin, reference compound]",Total cholesterol in LAPC-4 cells vs untreated cells,LAPC-4 cells [3],did not show a significant difference
same,ACAT1 mRNA expression,LAPC-4 cells [4]; 6 h,1.0
same,ACLY mRNA expression,LAPC-4 cells [4]; 6 h,1.0
same,FASN mRNA expression,LAPC-4 cells [4]; 6 h,1.2
same,HMGCR mRNA expression,LAPC-4 cells [4]; 6 h,1.4 *
same,HMGCS1 mRNA expression,LAPC-4 cells [4]; 6 h,1.3
same,LDLR mRNA expression,LAPC-4 cells [4]; 6 h,1.0
same,MVD mRNA expression,LAPC-4 cells [4]; 6 h,1.6 *
same,MVK mRNA expression,LAPC-4 cells [4]; 6 h,1.5
same,SCD1 mRNA expression,LAPC-4 cells [4]; 6 h,1.4
same,ACAT1 mRNA expression,LAPC-4 cells [4]; 18 h,1.0
same,ACLY mRNA expression,LAPC-4 cells [4]; 18 h,1.2
same,FASN mRNA expression,LAPC-4 cells [4]; 18 h,1.3
same,HMGCR mRNA expression,LAPC-4 cells [4]; 18 h,1.8 *
same,HMGCS1 mRNA expression,LAPC-4 cells [4]; 18 h,3.5 *
same,LDLR mRNA expression,LAPC-4 cells [4]; 18 h,1.8 *
same,MVD mRNA expression,LAPC-4 cells [4]; 18 h,2.6 *
same,MVK mRNA expression,LAPC-4 cells [4]; 18 h,2.0 *
same,SCD1 mRNA expression,LAPC-4 cells [4]; 18 h,1.6 *
same,ACAT1 mRNA expression,LAPC-4 cells [4]; 24 h,1.0
same,ACLY mRNA expression,LAPC-4 cells [4]; 24 h,1.9 *
same,FASN mRNA expression,LAPC-4 cells [4]; 24 h,1.7 *
same,HMGCR mRNA expression,LAPC-4 cells [4]; 24 h,2.6 *
same,HMGCS1 mRNA expression,LAPC-4 cells [4]; 24 h,2.7 *
same,LDLR mRNA expression,LAPC-4 cells [4]; 24 h,1.8 *
same,MVD mRNA expression,LAPC-4 cells [4]; 24 h,3.5 *
same,MVK mRNA expression,LAPC-4 cells [4]; 24 h,2.5 *
same,SCD1 mRNA expression,LAPC-4 cells [4]; 24 h,2.6 *
same,ACAT1 mRNA expression,LAPC-4 cells [4]; 36 h,1.1
same,ACLY mRNA expression,LAPC-4 cells [4]; 36 h,2.2 *
same,FASN mRNA expression,LAPC-4 cells [4]; 36 h,1.8 *
same,HMGCR mRNA expression,LAPC-4 cells [4]; 36 h,3.5 *
same,HMGCS1 mRNA expression,LAPC-4 cells [4]; 36 h,2.0 *
same,LDLR mRNA expression,LAPC-4 cells [4]; 36 h,2.5 *
same,MVD mRNA expression,LAPC-4 cells [4]; 36 h,4.0 *
same,MVK mRNA expression,LAPC-4 cells [4]; 36 h,2.5 *
same,SCD1 mRNA expression,LAPC-4 cells [4]; 36 h,4.5 *
"CC(=O)O[C@@]12CO[C@@H]1C[C@H](O)[C@@]1(C)C(=O)[C@H](O)C3=C(C)[C@@H](OC(=O)[C@H](O)[C@@H](NC(=O)OC(C)(C)C)c4ccccc4)C[C@@](O)([C@@H](OC(=O)c4ccccc4)[C@H]21)C3(C)C [docetaxel, reference compound]",effect on tumor growth,LAPC-4 xenografts; 4 mg/kg IP twice a week,no significant effect
same,block of tumor growth,PC-3 xenograft,35%
same,cell growth plateau,LAPC-4 cells [2]; between 0.01 and 10 µM,around 25%
CCC(C)(C)C(=O)O[C@H]1C[C@@H](C)C=C2C=C[C@H](C)[C@H](CC[C@@H]3C[C@@H](O)CC(=O)O3)[C@H]21 [simvastatin],LDLR expression,PC-3 (AR−) cells,decreased
same,intracellular cholesterol ratio,PC-3 (AR−) cells,decreased
same,LDLR expression,LNCaP (AR+) cells,increased
same,intracellular cholesterol ratio,LNCaP (AR+) cells,without affecting

# From paper PMC10252594 (Cancers, 2023)
